The source of these data is patent US20200115412A1, “SEPARATION OF VANCOMYCIN AND ITS DEGRADATION PRODUCTS” (SAVARA INC., priority 2018, published 2020).

The nature of series [1]: Impurities in AeroVanc vancomycin powder stored for three months at 5° C. and 25° C., improved HPLC impurity method. Type of series: physicochemical. How it is done:
Calculate the concentration of each individual impurity in samples 1A, 2A and 3A, as follows:
Where: • I %i=Impurity concentration in sample 1A, 2A or 3A (as percentage) • 10=Dilution factor (50 mL/5.0 mL) • CV=Vancomycin concentration in sample solutions 1B, 2B or 3B (μg/mL) • Ci=Concentration of impurity in sample solution 1A, 2A or 3A (μg/mL) • Ci,total=Total concentration of impurities in sample solutions 1A, 2A or 3A
The method disclosed herein was also applied to the determination of degradation products of AeroVanc vancomycin powder stored for three months at 5° C. and 25° C.

The nature of series [2]: Stated stability and handling properties. It counts as physicochemical. The conditions noted are these: reference standards handling. The text has this:
Vancomycin is a potent antibiotic reserved for serious drug-resistant bacterial infections including intravenous infusion for complicated infection (including MRSA) and oral administration for severe gastro-intestinal (GI) infections caused by Clostridium difficile. It was first isolated from soil bacterium (Amycolatopis orientalis) by Kornfeld in 1953, and first commercialized by Eli Lilly in 1954. Vancomycin, which is listed on the WHO's List of Essential Medicines, is a complex glycopeptide derived from N. orientalis with significant analytical challenges, including the presence of at least 12 identified impurities and a greater number of unknown impurities. […] Vancomycin has six ionizable groups and some of the impurities have seven. It is difficult to handle (high surface energy) and difficult to formulate. AeroVanc is a dry-powder inhalation product (DPI) under development for the treatment of methicillin resistant S. aureus (MRSA) infections in the lungs of cystic fibrosis patients. AeroVanc (vancomycin hydrochloride inhalation powder) contains the antibiotic and a single excipient, L-leucine. AeroVanc comprises a dry powder formulation which is delivered to the lungs by oral inhalation using a unit dose delivery device.

The conditions of series [3]: background statement; cited from earlier work.
Series [4] is described as follows: Impurity profiles of vancomycin degraded in solution and solid state (FIG. 22). Type of series: physicochemical. The source says: The method disclosed herein was successfully applied to the determination of degradation products of vancomycin in the solution and solid states.
Where [5] appears, read: AeroVanc vancomycin powder stored three months at 5° C.
The mark [6] stands for this setting: AeroVanc vancomycin powder stored three months at 25° C.

Structures can show the parent of a compound that is named as a salt. Where two headings read alike, the source gives them in different places.

`CC(C)C[C@@H](N)C(=O)N[C@H]1C(=O)N[C@@H](CC(N)=O)C(=O)N[C@H]2C(=O)N[C@H]3C(=O)N[C@H](C(=O)N[C@H](C(=O)O)c4cc(O)cc(O)c4-c4cc3ccc4O)[C@H](O)c3ccc(c(Cl)c3)Oc3cc2cc(c3O[C@@H]2O[C@H](CO)[C@@H](O)[C@H](O)[C@H]2O[C@H]2C[C@](C)(N)[C@H](O)[C@H](C)O2)Oc2ccc(cc2Cl)[C@H]1O` [N-demethyl, N-demethyl-vancomycin (EP Impurity A)]: the figures for the “Impurity (%)” value in series [1] (setting [5]) and in series [1] (setting [6]) were 1.757% and 1.722%, respectively.

For `CC(C)C[C@H](C(=O)N[C@H]1C(=O)N[C@@H](CC(N)=O)C(=O)N[C@H]2C(=O)NC3C(=O)N[C@H](C(=O)N[C@H](C(=O)O)c4cc(O)cc(O)c4-c4cc3ccc4O)[C@H](O)c3ccc(c(Cl)c3)Oc3cc2cc(c3O[C@@H]2OC(CO)C(O)C(O)[C@H]2O[C@H]2C[C@](C)(N)[C@H](O)[C@H](C)O2)Oc2ccc(cc2Cl)[C@H]1O)N(C)C` (some centres unmarked) [N-methyl, N-methyl-vancomycin], the “Impurity (%)” value in series [1] (setting [5]) was 0.019%; in series [1] (setting [6]), 0.027%.

On to `CN[C@H](CC(C)C)C(=O)N[C@H]1C(=O)N[C@@H](CC(N)=O)C(=O)N[C@H]2C(=O)N[C@H]3C(=O)N[C@H](C(=O)N[C@H](C(=O)O)c4cc(O)cc(O)c4-c4cc3ccc4O)[C@H](O)c3ccc(c(Cl)c3)Oc3cc2cc(c3O[C@@H]2O[C@H](CO)[C@@H](O)[C@H](O)[C@H]2O[C@H]2C[C@](C)(N)[C@H](O)[C@H](C)O2)Oc2ccc(cc2Cl)[C@H]1O` [Vancomycin HCl, vancomycin hydrochloride], for which, in series [2], the “light sensitivity and hygroscopicity” value is “light sensitive and hygroscopic”.

For `CN[C@H](CC(C)C)C(=O)N[C@H]1C(=O)N[C@@H](CC(N)=O)C(=O)N[C@H]2C(=O)N[C@H]3C(=O)N[C@H](C(=O)N[C@H](C(=O)O)c4cc(O)cc(O)c4-c4cc3ccc4O)[C@H](O)c3ccc(c(Cl)c3)Oc3cc2cc(c3O[C@@H]2O[C@H](CO)[C@@H](O)[C@H](O)[C@H]2O[C@H]2C[C@](C)(N)[C@H](O)[C@H](C)O2)Oc2ccc(cc2Cl)[C@H]1O` [Vancomycin], the “stability at room temperature” value in series [3] was “unstable at room temperature”. In addition, the “impurity profile of degraded vancomycin” value in series [4] (degraded in aqueous solution, compared to the degraded solid) was “larger amounts of CDP-1 Minor, CPD-1 Major and additional unknowns”; in series [4] (degraded solid, compared to the degraded aqueous solution) it was “increased desamido-succinimide vancomycin and agluco vancomycin”. Also, the net charge is, setting by setting: (at high pH) −4; (at low pH) “+2”; (plateau region between pH 3.5 and 5.5) “+1”.

For the compound Agluco-vancomycin (EP Impurity C), the “Impurity (%)” value was 0.139% in series [1] (setting [5]) and 0.163% in series [1] (setting [6]).

Consider Cis-chloro-(2)-vancomycin, for which the “Impurity (%)” value in series [1] (setting [5]) is 0.194%; in series [1] (setting [6]) it was 0.200%.

Turning to “De-((L-asn)-L-gln-vancomycin (EP Impurity B) [De-(L-Asn)-L-Gln]”, the “Impurity (%)” value in series [1] (setting [5]) is 0.152%; in series [1] (setting [6]), 0.151%.

For the compound “Des-(amido)-aspartyl-vancomycin (CDP-1 minor) [CDP-1minor]”, the “Impurity (%)” value in series [1] (setting [5]) was 0.017%; in series [1] (setting [6]), 0.026%.

With “Des-(amido)-succinimido- vancomycin [Des-amido-succinimido]”, the “Impurity (%)” value worked out at 0.577% in series [1] (setting [5]) and 0.759% in series [1] (setting [6]).

For the compound “Desvancosamino-vancomycin (EP Impurity D) [Des-vancosamino]”, the figures for the “Impurity (%)” value in series [1] (setting [5]) and in series [1] (setting [6]) were 0.343% and 0.398%, respectively.

For Epi-(26R)-vancomycin [Epi-26(R)], the “Impurity (%)” value stood at 0.610% in series [1] (setting [5]) and 0.628% in series [1] (setting [6]).

With Monodechloro-(2)-vancomycin, the “Impurity (%)” value is 0.069% in series [1] (setting [5]) and 0.072% in series [1] (setting [6]).

For the compound “Monodechloro-(6)-vancomycin [Mono-dechloro-(6)]”, the “Impurity (%)” value in series [1] (setting [5]) is reported as 0.679%; in series [1] (setting [6]) it was 0.671%.
